Measurements: PMC6886798, “Expression of myeloid Src-family kinases is associated with poor prognosis in AML and influences Flt3-ITD kinase inhibitor acquired resistance” (PLoS ONE, 2019)

What was measured:
Test in all cases: KINOMEscan
Type in all cases: binding
Conditions in all cases: 1.0 µM
[1] = biological target: T1, ABL1(F317L)-phosphorylated (Homo sapiens, UniProt P00519, F317L)
T1 construct: purchased Eurofins/DiscoverX KINOMEscan scanMAX
Experimental: (§1) Kinase retention to the immobilized ligand is then measured using quantitative real-time PCR for each kinase-specific DNA barcode.

ACVRL1 = biological target: T2, ACVRL1 (Homo sapiens, UniProt P37023)
T2 construct: purchased Eurofins/DiscoverX KINOMEscan scanMAX
Experimental: as §1

ARK5 = biological target: T3, ARK5 (Homo sapiens, UniProt O60285)
T3 construct: purchased Eurofins/DiscoverX KINOMEscan scanMAX
Experimental: as §1

BMPR1A = biological target: T4, BMPR1A (Homo sapiens, UniProt P36894)
T4 construct: purchased Eurofins/DiscoverX KINOMEscan scanMAX
Experimental: as §1

BMX = biological target: T5, BMX (Homo sapiens, UniProt P51813)
T5 construct: purchased Eurofins/DiscoverX KINOMEscan scanMAX
Experimental: as §1

BRK = biological target: T6, BRK (Homo sapiens, UniProt Q13882)
T6 construct: purchased Eurofins/DiscoverX KINOMEscan scanMAX
Experimental: as §1

CAMK1G = biological target: T7, CAMK1G (Homo sapiens, UniProt Q96NX5)
T7 construct: purchased Eurofins/DiscoverX KINOMEscan scanMAX
Experimental: as §1

CAMK2A = biological target: T8, CAMK2A (Homo sapiens, UniProt Q9UQM7)
T8 construct: purchased Eurofins/DiscoverX KINOMEscan scanMAX
Experimental: as §1

CAMK4 = biological target: T9, CAMK4 (Homo sapiens, UniProt Q16566)
T9 construct: purchased Eurofins/DiscoverX KINOMEscan scanMAX
Experimental: as §1

CDK11 = biological target: T10, CDK11 (Homo sapiens, UniProt Q9BWU1)
T10 construct: purchased Eurofins/DiscoverX KINOMEscan scanMAX
Experimental: as §1

CSNK1G1 = biological target: T11, CSNK1G1 (Homo sapiens, UniProt Q9HCP0)
T11 construct: purchased Eurofins/DiscoverX KINOMEscan scanMAX
Experimental: as §1

DMPK2 = biological target: T12, DMPK2 (Homo sapiens, UniProt Q6DT37)
T12 construct: purchased Eurofins/DiscoverX KINOMEscan scanMAX
Experimental: as §1

DYRK2 = biological target: T13, DYRK2 (Homo sapiens, UniProt Q92630)
T13 construct: purchased Eurofins/DiscoverX KINOMEscan scanMAX
Experimental: as §1

FGR = biological target: T14, FGR (Homo sapiens, UniProt P09769)
T14 construct: purchased Eurofins/DiscoverX KINOMEscan scanMAX
Experimental: as §1

FLT3(D835V) = biological target: T15, FLT3(D835V) (Homo sapiens, UniProt P36888, D835V)
T15 construct: purchased Eurofins/DiscoverX KINOMEscan scanMAX
Experimental: as §1

[2] = biological target: T16, JAK2(JH1domain-catalytic) (Homo sapiens, UniProt O60674)
T16 construct: JAK2(JH1domain-catalytic); purchased Eurofins/DiscoverX KINOMEscan scanMAX
Experimental: as §1

KIT(D816V) = biological target: T17, KIT(D816V) (Homo sapiens, UniProt P10721, D816V)
T17 construct: purchased Eurofins/DiscoverX KINOMEscan scanMAX
Experimental: as §1

LIMK1 = biological target: T18, LIMK1 (Homo sapiens, UniProt P53667)
T18 construct: purchased Eurofins/DiscoverX KINOMEscan scanMAX
Experimental: as §1

LTK = biological target: T19, LTK (Homo sapiens, UniProt P29376)
T19 construct: purchased Eurofins/DiscoverX KINOMEscan scanMAX
Experimental: as §1

MAP3K4 = biological target: T20, MAP3K4 (Homo sapiens, UniProt Q9Y6R4)
T20 construct: purchased Eurofins/DiscoverX KINOMEscan scanMAX
Experimental: as §1

MAPKAPK5 = biological target: T21, MAPKAPK5 (Homo sapiens, UniProt Q8IW41)
T21 construct: purchased Eurofins/DiscoverX KINOMEscan scanMAX
Experimental: as §1

MARK1 = biological target: T22, MARK1 (Homo sapiens, UniProt Q9P0L2)
T22 construct: purchased Eurofins/DiscoverX KINOMEscan scanMAX
Experimental: as §1

MINK = biological target: T23, MINK (Homo sapiens, UniProt Q8N4C8)
T23 construct: purchased Eurofins/DiscoverX KINOMEscan scanMAX
Experimental: as §1

MKNK1 = biological target: T24, MKNK1 (Homo sapiens, UniProt Q9BUB5)
T24 construct: purchased Eurofins/DiscoverX KINOMEscan scanMAX
Experimental: as §1

MST4 = biological target: T25, MST4 (Homo sapiens, UniProt Q9P289)
T25 construct: purchased Eurofins/DiscoverX KINOMEscan scanMAX
Experimental: as §1

NEK10 = biological target: T26, NEK10 (Homo sapiens, UniProt Q6ZWH5)
T26 construct: purchased Eurofins/DiscoverX KINOMEscan scanMAX
Experimental: as §1

NIK = biological target: T27, NIK (Homo sapiens, UniProt Q99558)
T27 construct: purchased Eurofins/DiscoverX KINOMEscan scanMAX
Experimental: as §1

PCTK1 = biological target: T28, PCTK1 (Homo sapiens, UniProt Q00536)
T28 construct: purchased Eurofins/DiscoverX KINOMEscan scanMAX
Experimental: as §1

PIM2 = biological target: T29, PIM2 (Homo sapiens, UniProt Q9P1W9)
T29 construct: purchased Eurofins/DiscoverX KINOMEscan scanMAX
Experimental: as §1

PIP5K2B = biological target: T30, PIP5K2B (Homo sapiens, UniProt P78356)
T30 construct: purchased Eurofins/DiscoverX KINOMEscan scanMAX
Experimental: as §1

PRKCD = biological target: T31, PRKCD (Homo sapiens, UniProt Q05655)
T31 construct: purchased Eurofins/DiscoverX KINOMEscan scanMAX
Experimental: as §1

PRKD1 = biological target: T32, PRKD1 (Homo sapiens, UniProt Q15139)
T32 construct: purchased Eurofins/DiscoverX KINOMEscan scanMAX
Experimental: as §1

RET(V804L) = biological target: T33, RET(V804L) (Homo sapiens, UniProt P07949, V804L)
T33 construct: purchased Eurofins/DiscoverX KINOMEscan scanMAX
Experimental: as §1

RIOK2 = biological target: T34, RIOK2 (Homo sapiens, UniProt Q9BVS4)
T34 construct: purchased Eurofins/DiscoverX KINOMEscan scanMAX
Experimental: as §1

RIPK5 = biological target: T35, RIPK5 (Homo sapiens, UniProt Q6XUX3)
T35 construct: purchased Eurofins/DiscoverX KINOMEscan scanMAX
Experimental: as §1

ROS1 = biological target: T36, ROS1 (Homo sapiens, UniProt P08922)
T36 construct: purchased Eurofins/DiscoverX KINOMEscan scanMAX
Experimental: as §1

SNARK = biological target: T37, SNARK (Homo sapiens, UniProt Q9H093)
T37 construct: purchased Eurofins/DiscoverX KINOMEscan scanMAX
Experimental: as §1

STK39 = biological target: T38, STK39 (Homo sapiens, UniProt Q9UEW8)
T38 construct: purchased Eurofins/DiscoverX KINOMEscan scanMAX
Experimental: as §1

SgK110 = biological target: T39, SgK110 (Homo sapiens, UniProt P0C264)
T39 construct: purchased Eurofins/DiscoverX KINOMEscan scanMAX
Experimental: as §1

TAK1 = biological target: T40, TAK1 (Homo sapiens, UniProt O43318)
T40 construct: purchased Eurofins/DiscoverX KINOMEscan scanMAX
Experimental: as §1

TAOK1 = biological target: T41, TAOK1 (Homo sapiens, UniProt Q7L7X3)
T41 construct: purchased Eurofins/DiscoverX KINOMEscan scanMAX
Experimental: as §1

ULK3 = biological target: T42, ULK3 (Homo sapiens, UniProt Q6PHR2)
T42 construct: DNA tag (qPCR barcode); purchased Eurofins/DiscoverX KINOMEscan scanMAX
Experimental: as §1

T11 sequence (Q9HCP0 whole entry): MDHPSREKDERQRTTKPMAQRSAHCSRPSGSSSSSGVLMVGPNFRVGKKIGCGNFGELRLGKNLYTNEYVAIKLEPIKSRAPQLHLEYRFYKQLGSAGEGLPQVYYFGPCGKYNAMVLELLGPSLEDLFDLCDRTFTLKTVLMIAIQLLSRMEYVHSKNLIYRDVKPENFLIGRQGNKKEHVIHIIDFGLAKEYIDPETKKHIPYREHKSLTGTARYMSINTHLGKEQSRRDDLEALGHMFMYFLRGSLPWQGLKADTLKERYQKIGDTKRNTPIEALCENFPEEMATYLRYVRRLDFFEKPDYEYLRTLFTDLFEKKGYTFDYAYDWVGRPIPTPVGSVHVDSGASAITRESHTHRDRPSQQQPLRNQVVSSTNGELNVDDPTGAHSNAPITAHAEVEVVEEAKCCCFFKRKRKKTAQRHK
T14 sequence (P09769 whole entry): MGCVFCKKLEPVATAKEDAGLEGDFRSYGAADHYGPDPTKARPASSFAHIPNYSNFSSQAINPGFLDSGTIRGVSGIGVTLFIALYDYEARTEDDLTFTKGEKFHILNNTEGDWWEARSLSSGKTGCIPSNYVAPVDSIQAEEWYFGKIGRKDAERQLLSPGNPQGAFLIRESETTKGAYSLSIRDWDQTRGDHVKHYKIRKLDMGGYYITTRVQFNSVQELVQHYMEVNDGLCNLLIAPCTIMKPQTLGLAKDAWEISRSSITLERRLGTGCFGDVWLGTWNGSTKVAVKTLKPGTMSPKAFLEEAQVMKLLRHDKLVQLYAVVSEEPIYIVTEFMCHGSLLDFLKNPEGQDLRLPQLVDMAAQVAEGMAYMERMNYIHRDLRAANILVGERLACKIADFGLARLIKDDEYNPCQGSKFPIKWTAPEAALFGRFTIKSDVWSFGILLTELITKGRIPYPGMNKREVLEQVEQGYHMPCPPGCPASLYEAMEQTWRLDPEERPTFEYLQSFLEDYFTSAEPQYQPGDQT
T17 sequence (P10721 26-976 D816V): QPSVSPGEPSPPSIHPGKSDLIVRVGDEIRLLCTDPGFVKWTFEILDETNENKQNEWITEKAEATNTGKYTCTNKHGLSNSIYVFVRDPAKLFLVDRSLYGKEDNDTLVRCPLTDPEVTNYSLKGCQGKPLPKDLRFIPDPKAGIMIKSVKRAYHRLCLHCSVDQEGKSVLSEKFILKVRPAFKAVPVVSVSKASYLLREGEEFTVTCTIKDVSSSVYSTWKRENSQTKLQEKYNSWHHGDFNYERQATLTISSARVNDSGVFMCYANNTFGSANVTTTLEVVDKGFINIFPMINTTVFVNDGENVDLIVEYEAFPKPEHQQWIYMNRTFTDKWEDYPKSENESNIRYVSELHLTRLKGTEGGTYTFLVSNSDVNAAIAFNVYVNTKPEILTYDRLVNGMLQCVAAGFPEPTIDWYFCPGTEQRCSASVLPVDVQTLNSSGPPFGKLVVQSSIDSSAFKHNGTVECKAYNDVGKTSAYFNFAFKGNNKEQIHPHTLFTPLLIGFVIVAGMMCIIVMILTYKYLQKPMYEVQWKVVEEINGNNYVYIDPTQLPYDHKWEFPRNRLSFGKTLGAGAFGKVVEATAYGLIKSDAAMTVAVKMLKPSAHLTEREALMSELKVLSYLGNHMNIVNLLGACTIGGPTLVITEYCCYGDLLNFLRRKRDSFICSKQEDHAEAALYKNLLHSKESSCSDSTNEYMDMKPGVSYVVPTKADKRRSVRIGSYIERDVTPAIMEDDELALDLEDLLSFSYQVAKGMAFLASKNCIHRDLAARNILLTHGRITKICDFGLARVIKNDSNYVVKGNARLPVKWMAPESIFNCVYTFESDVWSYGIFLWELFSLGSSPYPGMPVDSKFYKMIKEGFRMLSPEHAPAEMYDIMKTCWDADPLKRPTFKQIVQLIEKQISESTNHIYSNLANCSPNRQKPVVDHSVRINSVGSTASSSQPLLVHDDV
T6 sequence (Q13882 whole entry): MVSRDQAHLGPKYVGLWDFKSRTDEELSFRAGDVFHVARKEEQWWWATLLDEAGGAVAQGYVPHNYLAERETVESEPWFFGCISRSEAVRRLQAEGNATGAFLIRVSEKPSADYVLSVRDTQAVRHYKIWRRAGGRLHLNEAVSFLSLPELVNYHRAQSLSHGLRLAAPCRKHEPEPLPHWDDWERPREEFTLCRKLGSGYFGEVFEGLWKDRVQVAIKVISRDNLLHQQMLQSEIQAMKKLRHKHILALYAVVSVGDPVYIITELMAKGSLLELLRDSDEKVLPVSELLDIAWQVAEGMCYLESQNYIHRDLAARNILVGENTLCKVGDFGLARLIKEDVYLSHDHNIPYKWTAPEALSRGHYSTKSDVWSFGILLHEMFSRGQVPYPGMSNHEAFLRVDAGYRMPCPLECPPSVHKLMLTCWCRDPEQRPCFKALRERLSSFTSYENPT
T21 sequence (Q8IW41 whole entry): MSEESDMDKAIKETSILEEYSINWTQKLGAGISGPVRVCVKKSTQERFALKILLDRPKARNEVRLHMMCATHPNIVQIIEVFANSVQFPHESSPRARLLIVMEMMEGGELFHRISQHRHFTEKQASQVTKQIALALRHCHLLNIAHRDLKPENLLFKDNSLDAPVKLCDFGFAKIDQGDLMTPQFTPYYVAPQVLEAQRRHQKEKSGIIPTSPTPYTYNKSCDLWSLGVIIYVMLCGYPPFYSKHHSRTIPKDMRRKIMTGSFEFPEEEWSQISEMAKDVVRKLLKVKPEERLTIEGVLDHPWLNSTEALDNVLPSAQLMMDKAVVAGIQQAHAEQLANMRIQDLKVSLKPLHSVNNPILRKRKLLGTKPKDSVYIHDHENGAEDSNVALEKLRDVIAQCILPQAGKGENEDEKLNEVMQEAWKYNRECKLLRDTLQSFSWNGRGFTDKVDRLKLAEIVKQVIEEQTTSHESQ
T3 sequence (O60285 whole entry): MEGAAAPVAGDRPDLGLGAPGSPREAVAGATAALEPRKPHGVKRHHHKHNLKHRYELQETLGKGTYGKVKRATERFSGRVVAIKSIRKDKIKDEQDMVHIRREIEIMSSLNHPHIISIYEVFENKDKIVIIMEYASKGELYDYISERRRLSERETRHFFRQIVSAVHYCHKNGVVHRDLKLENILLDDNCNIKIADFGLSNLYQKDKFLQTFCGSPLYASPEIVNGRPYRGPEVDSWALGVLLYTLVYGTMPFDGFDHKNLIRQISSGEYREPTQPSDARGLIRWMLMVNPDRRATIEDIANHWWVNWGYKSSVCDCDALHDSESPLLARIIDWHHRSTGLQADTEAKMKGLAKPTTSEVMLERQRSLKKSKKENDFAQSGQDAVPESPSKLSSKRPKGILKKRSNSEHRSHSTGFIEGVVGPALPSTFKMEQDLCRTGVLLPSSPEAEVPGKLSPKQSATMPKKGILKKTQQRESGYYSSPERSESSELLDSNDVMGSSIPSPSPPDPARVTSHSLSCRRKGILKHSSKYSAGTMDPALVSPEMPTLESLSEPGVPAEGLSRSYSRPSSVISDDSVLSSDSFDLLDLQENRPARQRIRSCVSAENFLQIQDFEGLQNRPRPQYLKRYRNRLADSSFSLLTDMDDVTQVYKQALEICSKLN
T34 sequence (Q9BVS4 whole entry): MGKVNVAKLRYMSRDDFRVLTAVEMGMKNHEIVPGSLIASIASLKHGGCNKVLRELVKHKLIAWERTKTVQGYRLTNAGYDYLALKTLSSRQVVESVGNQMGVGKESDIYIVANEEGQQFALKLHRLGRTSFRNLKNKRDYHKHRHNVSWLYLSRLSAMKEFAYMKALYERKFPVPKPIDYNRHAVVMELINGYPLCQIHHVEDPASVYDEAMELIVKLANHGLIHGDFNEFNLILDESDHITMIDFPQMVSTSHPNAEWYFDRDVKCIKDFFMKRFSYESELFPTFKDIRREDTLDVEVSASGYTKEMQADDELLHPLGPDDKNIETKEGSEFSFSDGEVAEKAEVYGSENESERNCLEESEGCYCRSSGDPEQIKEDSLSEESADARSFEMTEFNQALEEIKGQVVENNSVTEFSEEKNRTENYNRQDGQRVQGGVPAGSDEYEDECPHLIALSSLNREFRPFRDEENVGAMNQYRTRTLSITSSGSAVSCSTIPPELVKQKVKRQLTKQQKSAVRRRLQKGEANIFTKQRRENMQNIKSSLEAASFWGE
T40 sequence (O43318 whole entry): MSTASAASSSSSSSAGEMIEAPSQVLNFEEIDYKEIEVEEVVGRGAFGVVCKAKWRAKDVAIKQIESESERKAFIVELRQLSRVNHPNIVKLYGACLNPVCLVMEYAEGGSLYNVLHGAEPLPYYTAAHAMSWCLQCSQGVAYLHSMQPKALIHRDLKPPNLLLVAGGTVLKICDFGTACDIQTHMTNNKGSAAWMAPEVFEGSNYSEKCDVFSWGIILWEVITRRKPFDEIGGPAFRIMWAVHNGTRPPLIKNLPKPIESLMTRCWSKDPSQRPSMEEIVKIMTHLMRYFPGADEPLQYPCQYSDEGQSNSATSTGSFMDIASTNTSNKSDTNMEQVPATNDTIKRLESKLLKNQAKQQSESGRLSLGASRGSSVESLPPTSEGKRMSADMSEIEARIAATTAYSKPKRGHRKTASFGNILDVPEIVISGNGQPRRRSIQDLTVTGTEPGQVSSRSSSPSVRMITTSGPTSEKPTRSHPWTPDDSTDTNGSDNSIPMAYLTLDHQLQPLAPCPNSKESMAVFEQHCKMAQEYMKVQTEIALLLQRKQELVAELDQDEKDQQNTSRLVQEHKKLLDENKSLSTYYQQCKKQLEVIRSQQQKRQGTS
T29 sequence (Q9P1W9 whole entry): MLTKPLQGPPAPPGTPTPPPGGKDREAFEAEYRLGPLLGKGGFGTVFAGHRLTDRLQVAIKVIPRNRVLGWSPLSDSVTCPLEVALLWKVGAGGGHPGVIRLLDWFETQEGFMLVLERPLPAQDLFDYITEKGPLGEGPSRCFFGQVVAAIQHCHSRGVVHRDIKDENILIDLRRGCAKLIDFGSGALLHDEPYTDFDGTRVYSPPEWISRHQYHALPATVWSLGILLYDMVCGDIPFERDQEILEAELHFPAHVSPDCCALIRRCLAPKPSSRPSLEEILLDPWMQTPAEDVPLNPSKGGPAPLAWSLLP

SMILES: CN1CCN(C2CCC(n3cc(-c4ccc(Oc5ccccc5)cc4)c4c(N)ncnc43)CC2)CC1 (stereo not drawn) [A-419259]
- % Control [1]: 0%
- % Control (ACVRL1): 100%
- % Control (ARK5): 90%
- % Control (BMPR1A): 100%
- % Control (BMX): 30%
- % Control (BRK): 0.2%
- % Control (CAMK1G): 100%
- % Control (CAMK2A): 88%
- % Control (CAMK4): 100%
- % Control (CDK11): 3.9%
- % Control (CSNK1G1): 80%
- % Control (DMPK2): 36%
- % Control (DYRK2): 100%
- % Control (FGR): 0.85%
- % Control (FLT3(D835V)): 0.15%
- % Control [2]: 100%
- % Control (KIT(D816V)): 70%
- % Control (LIMK1): 31%
- % Control (LTK): 36%
- % Control (MAP3K4): 92%
- % Control (MAPKAPK5): 100%
- % Control (MARK1): 82%
- % Control (MINK): 30%
- % Control (MKNK1): 63%
- % Control (MST4): 4.9%
- % Control (NEK10): 100%
- % Control (NIK): 100%
- % Control (PCTK1): 99%
- % Control (PIM2): 100%
- % Control (PIP5K2B): 94%
- % Control (PRKCD): 89%
- % Control (PRKD1): 63%
- % Control (RET(V804L)): 24%
- % Control (RIOK2): 100%
- % Control (RIPK5): 7.1%
- % Control (ROS1): 100%
- % Control (SNARK): 26%
- % Control (STK39): 100%
- % Control (SgK110): 100%
- % Control (TAK1): 77%
- % Control (TAOK1): 100%
- % Control (ULK3): 84%
